# Values quoted from earlier work as cited in patent US20040138299A1, “Solid pharmaceutical composition comprising 4-cyano-trifluoro-3(4-fluorophenyl-sulphonyl)-2hydroxy-methylpropiono-m toluidide and pvp” (priority 2001, published 2004).
# Details: conventional tablet doses above 300 mg
smiles,measurement,value
"CC(O)(CS(=O)(=O)c1ccc(F)cc1)C(=O)Nc1ccc(C#N)c(C(F)(F)F)c1 (stereo not drawn) [bicalutamide, 4′-cyano-α′,α′,α′-trifluoro-3-(4-fluorophenylsulphonyl)-2-hydroxy-2-methylpropiono-m-toluidide]",systemic exposure at high dose,no further significant increase in systemic exposure
